Laboratory results as given in patent US7214668B2, “Phosphonic acid based prodrugs of PMEA and its analogues” (Metabasis Therapeutics, Inc., priority 2002, dated 2007).
Like-named read-outs stand apart in the source and are kept apart here. One block for each compound: values may come before it.

Experiments:
[1] = system: human liver microsomes; experiment: Cis versus trans prodrug activation in human liver microsomes; format: in vitro ADME; conditions: 100 μM prodrug, 2 mg/mL human liver microsomes; for Activation Rate: 5 minutes, 37° C.
Text: The activation rates of cis (Compound 56, lot #20010093) and trans (9-{2-[2,4-trans-(S)-(+)-4-(3-chlorophenyl)-2-oxo-1,3,2-dioxaphosphorinan-2-yl]methoxyethyl} adenine, (lot 20010195) PMEA prodrugs was compared in order to establish which prodrug diastereomer is activated the most efficiently in human liver microsomes.
Human liver microsomes (mixed pool) were purchased from In Vitro Technologies (Lot RQX). […] Reactions were quenched with 60% methanol.

[2] = PMEApp accumulation in liver organ following oral administration to normal fasted rats; format: in vivo, rat; conditions: 30 mg/kg PMEA equivalents p.o.
Experimental: PMEA prodrugs were tested in vivo to identify prodrugs with suitable oral bioavailability and favorable intrahepatic activation rates.
Following oral administration of 30-mg/kg prodrug (PMEA equivalents) to normal, fasted rats, liver organ samples were freeze-clamped at 8 hr. […] The retention time of PMEApp was 18.6 minutes.

[3] = system: freshly isolated rat hepatocytes; experiment: PMEApp accumulation in rat hepatocytes following incubation with Compound 56 and PMEA (25 μM); format: cell-based; conditions: 0–4 h, rat hepatocytes 20 mg/ml
Experimental: Hepatocyte pellets were immediately sonicated in 300 μl of ice-cold acetonitrile followed by the addition of 200 μl of water. Hepatocyte extracts were centrifuged for 20 minutes in an Eppendorf centrifuge at 4° C. and supernatants from the extracts were transferred to a fresh tube. Hepatocyte extract supernatants were evaporated to dryness under vacuum and then resuspended in 200 μl of water. PMEApp concentrations were quantified by LC-MS/MS (negative-ion mode) based on authentic PMEApp standards spiked into hepatocyte extracts. Ten microliter samples were loaded onto a Phenomenex Luna […] C8 column (50×2 mm) in 20 mM N-N-dimethylhexylamine, 10 mM propionic acid and eluted with a gradient of methanol from 20–64% over 5.5 minutes. An API 2000 triple quadrupole mass spectrometer fitted with a pneumatically-assisted electrospray interface was used to quantify the negative ion (PO3^−) using a Multiple Reaction Monitoring (MRM) technique.

[4] = humans; i.v. dose; cited from earlier work
[5] = oral administration, species not stated; cited from earlier work
[6] = cited from earlier work
[7] = cited from earlier work; remark: listed apart in the source
[8] = Plasma and urine PMEA following oral Compound 4 and bis POM PMEA in rats; format: in vivo, rat; conditions: 30 mg/kg PMEA equivalents p.o.
Experimental: PMEA levels (0–12 h) were quantified in plasma by fluorescence HPLC following chloroacetaldehyde derivatization. PMEA levels in urine were quantified 48 hours after treatment.
Plasma drug levels: PMEA was determined in plasma by a modification of the procedure described in the literature (Shaw J P, Louie M S, Krishnamurthy V V, Arimilli M N, Jones R J, Bidgood A M, Lee W A, & Cundy K C, Drug Metabolism and Disposition, 25:362–366 (1997)). Plasma (100 μL) samples were extracted with 2 volumes of 0.1% TFA in acetonitrile. Following centrifugation to remove the precipitate, the supernatant was evaporated to dryness. The dried plasma was reconstituted with 200 μL of the derivatization cocktail consisting of 0.34% chloroacetaldehyde in 100 mM sodium acetate pH 4.5 and incubated at 95° C. for 40 min. The samples were evaporated to dryness and reconstituted with mobile phase for analysis by HPLC. The derivatized PMEA was analyzed by an HPLC system (Hewlett Packard 1090) consisting of a Beckman Ultrasphere ODS 4.6×150 mm (5 μm) column developed with a 20-min gradient of 0–30% acetonitrile in 20 mM potassium phosphate pH 6.2. Fluorescence was monitored at an excitation and emission wavelength of 240 and 420 nm, respectively. The column temperature was 40° C. and the flow rate was 1.5 mL/min. The derivatized PMEA was detected and quantified by comparison to an authentic standard prepared in plasma and eluted at approximately 6 minutes. The limit of quantitation of PMEA, was 0.25 μg/mL.
Urinary excretion studies: The percent excretion of PMEA in urine was assessed by a modification of a previously described procedure (Russell J W, Marrero D, Whiterock V J, & Klunk L J, J Chromatog, 572:321–326 (1991)). Aliquots (0.25–0.5 mL) of urine samples and spiked standards were incubated with an equal volume of 17% (v/v) of 50% chloroacetaldehyde in 100 mM sodium acetate pH 4.5 at 50° C. for 4 hrs. Following centrifugation, the supernatant was analyzed by the HPLC method described in the previous section.

[9] = 30 mg/kg PMEA equivalents p.o., rats
Experimental: Intact prodrug and the metabolite 9-[2-(phosophonomethoxy)ethyl]adenine (PMEA) and the respective mono-acids were measured in the plasma at 0 (predose), 0.33, 1, 3, 5, 8, and 12 hrs post dose by HPLC using fluorescence detection. The pharmacokinetic parameters were calculated based on noncompartmental analysis of the concentration-time profile.

[10] = dog, after bis POM PMEA, Cundy et al. 1997; cited from earlier work
[11] = cited from earlier work; remark: listed apart in the source
[12] = cited from earlier work; remark: listed apart in the source
[13] = Tissue distribution of PMEA equivalents after oral tritiated Compound 4 and bis POM PMEA in rats; conditions: p.o.
Experimental: Total tritium counts were analyzed in solubilized samples of liver organ, kidney, plasma, urine, red blood cells, small intestine, as well as small intestine contents and feces obtained at various time points over 24 hours. Liver organ specificity was assessed by comparison of the temporal profiles of total tritium in liver organ versus kidney, small intestine, plasma, and red blood cells. Metabolite profiles in perchloric acid extracts of liver organ, kidney, small intestine, feces and urine were analyzed by HPLC.

[14] = system: liver microsomes isolated from rats induced with dexamethasone; experiment: In vitro activation of PMEA prodrug analogues to PMEA by rat liver microsomes
Experimental: PMEA prodrug analogues were tested for activation to PMEA in reactions catalyzed by the microsomal fraction of rat liver.
Prodrugs (25 and 250 μM) were tested for activation by liver microsomes isolated from rats induced with dexamethasone to enhance CYP3A4 activity (Human Biologics Inc., Phoenix Ariz.). Reactions were conducted in 0.1 M KH2PO4, pH 7.4, in the presence of 2 mM NADPH and liver microsomes (1 mg/mL). Reaction mixtures were incubated for 5 minutes in an Eppendorf Thermomixer 5436 (37° C., speed 6). Reactions were terminated by the addition of 1.5 volumes of methanol. The resulting extracts were clarified by centrifugation at 14,000 rpm in an Eppendorf microfuge (20 minutes). The supernatants (200 μL) were evaporated under vacuum and heat to dryness before resuspending in 80 μL of buffer A (see below) for PMEA analysis. Spiked standards of 9-[2-(phosophonomethoxy)ethyl]adenine, (PMEA, lot 980397, Metabasis Therapeutics) were prepared in the same reaction mixture and processed in an identical fashion. After resuspension, samples were analyzed by reverse phase HPLC (Altima C-18 column) with use of an ion-pairing buffer (Buffer A) consisting of 10 mM ammonium phosphate, 2.5 mM octyltriethylammonium phosphate, pH 5.5. Samples were loaded in Buffer A and eluted with a methanol gradient from 40% to 80% over 20 minutes. Detection was at 265 nm.

[15] = system: freshly isolated rat hepatocytes; conditions: 250 μM prodrug
Experimental: PMEA prodrugs were tested.
Hepatocytes were prepared from fed Sprague-Dawley rats (250–300 g) according to the procedure of Berry and Friend (Berry, M. N. Friend, D. S., J. Cell Biol. 43:506–520 (1969)) as modified by Groen (Groen, A. K. et al., Eur. J. Biochem 122:87–93 (1982)). Hepatocytes (60 mg/ml wet weight, >85% trypan blue viability) were incubated in 2 ml of krebs-bicarbonate buffer containing 20 mM glucose, and 1 mg/ml BSA for 4 hours in the presence of 250 μM PMEA prodrugs (from 25 mM stock solutions of prodrugs in methanol). At appropriate time points throughout the incubation (0, 1, 2, 4 hours), 400-μl aliquots of the cell suspension were taken and centrifuged through a silicon/mineral oil layer into 10% perchloric acid to extract intracellular nucleotides. The acidic cell extracts were neutralized with 0.3 volumes of 3M KOH/3M […] before evaluating PMEApp levels by ion exchange HPLC (Hewlett Packard 1050) using a Whatman Partisphere SAX (5 μm, 4.6×125 mm) column. Samples were loaded onto the column in 0.3M-ammonium phosphate buffer pH 3.5 and eluted from the column with a gradient to 0.8 M ammonium phosphate pH 3.5.

[16] = Solubility and stability of the mesylate salt of Compound 54 in water; format: physicochemical
Experimental: Ten Compound 54 salt forms (L-tartartric, succinic, maleic, L-malic, D-malic, citric, hydrochloric, phosphoric, nitric, methane-sulfonic acids) were evaluated to identify the best salt form to selectively crystallize out the cis-diastereomer from cis:trans mixtures following the prodrug coupling procedure. Solubility and stability of the mesylate salt of Compound 54 were analyzed in water.

[17] = 30 mg/kg PMEA equivalents, in water, normal male rats
Experimental: Compound 56 was solubilized in water for intravenous and oral administration. […] Liver organ concentrations of PMEApp were determined as indicated in Example I.

[18] = 25 μM prodrug, 1 mg/mL microsomes, 2 mM NADPH, 5 minutes, 37° C., PMEA formation
[19] = 250 μM prodrug, 1 mg/mL microsomes, 2 mM NADPH, 5 minutes, 37° C., PMEA formation

SMILES: Nc1ncnc2c1ncn2CCOCP1(=O)OCC[C@@H](c2cccc(Cl)c2)O1 (stereo in doubt) [trans-, 9-{2-[2,4-trans-(S)-(+)-4-(3-chlorophenyl)-2-oxo-1,3,2-dioxaphosphorinan-2-yl]methoxyethyl} adenine]
Activation (below measureable detection limit, text) [1]: < 0.05 nmol/min/mg
Activation Rate [1]: ≦0.05 nmol/mg/min.

Rats, PMEApp levels in liver organ @ 8 hr., 30 mg/kg, p.o. [2]: 2.2 nmol/g
SMILES: Nc1ncnc2c1ncn2CCOCP1(=O)OCCC(c2cc(F)cc(F)c2)O1 (mixture of isomers) [Compound 10]

SMILES: Nc1ncnc2c1ncn2CCOCP(=O)(O)O [PMEA, 9-(2-phosphonylmethoxyethyl)adenine]
AUC0-4h PMEApp levels in hepatocytes [3]: 84 nmol·h/g
Dose excreted renally / renally cleared [4]: 98%
Oral bioavailability [5]: < 10%
Oral bioavailability in monkeys [6]: < 1%
Oral bioavailability in humans [7]: < 12%

SMILES: CC(C)(C)C(=O)OCOP(=O)(COCCn1cnc2c(N)ncnc21)OCOC(=O)C(C)(C)C [bis POM PMEA]
AUC0-12h of PMEA in plasma ([8]; fasted rats): 21.3 µM·h
Urinary levels of PMEA ([8]; rats, urine 48 hours after treatment): 20.6 % dose
Intact prodrug in plasma [9]: not detected
PMEA AUC (dose-normalized plasma), literature [10]: 10.9
Oral bioavailability in rats [11]: 38%
Oral bioavailability in monkeys [6]: 25%
Oral bioavailability in humans [7]: 41%
Half-life in human serum [12]: < 5 min
Dose excreted in feces in the form of PMEA [13]: 43%

Activation Rate, Dex. Rat Liver Microsomes, 25 μM [14, 18]: 1.3 nmol/min/mg
Activation Rate, Dex. Rat Liver Microsomes, 250 μM [14, 19]: 1.5 nmol/min/mg
Rats, PMEApp levels in liver organ @ 8 hr., 30 mg/kg, p.o. [2]: 2.6 nmol/g
SMILES: Nc1ncnc2c1ncn2CCOCP1(=O)OCCC(c2ccc(Br)c(F)c2)O1 (mixture of isomers) [Compound 5]

SMILES: Nc1ncnc2c1ncn2CCOCP1(=O)OCCC(c2ccccc2)O1 (mixture of isomers) [Compound 1]
Rats, PMEApp levels in liver organ @ 8 hr., 30 mg/kg, p.o. [2]: 0.6 nmol/g

Activation Rate, Dex. Rat Liver Microsomes, 25 μM [14, 18]: <0.5 nmol/min/mg
Activation Rate, Dex. Rat Liver Microsomes, 250 μM [14, 19]: 0.6 nmol/min/mg
SMILES: Cc1ccc(C2CCOP(=O)(COCCn3cnc4c(N)ncnc43)O2)cn1 (mixture of isomers) [Compound 18]

SMILES: Nc1ncnc2c1ncn2CCOCP1(=O)OCCC(c2cc(Cl)cc(Cl)c2)O1 (mixture of isomers) [Compound 3]
Activation Rate, Dex. Rat Liver Microsomes, 25 μM [14]: 2.2 nmol/min/mg
Activation Rate, Dex. Rat Liver Microsomes, 250 μM [14]: 1.9 nmol/min/mg

SMILES: Nc1ncnc2c1ncn2CCOCP1(=O)OCCC(c2cccc(Br)c2)O1 (mixture of isomers) [Compound 7]
Rats, PMEApp levels in liver organ @ 8 hr., 30 mg/kg, p.o. [2]: 2.2 nmol/g

SMILES: Nc1ncnc2c1ncn2CCOCP1(=O)OCCC(c2ccncc2)O1 (mixture of isomers) [Compound 2]
Rat Hepatocytes, PMEApp formation, 250 μM, AUC 0–4 h [15]: 106.8 nmol·h/g

SMILES: Nc1ncnc2c1ncn2CCOCP1(=O)OCCC(c2ccccc2Br)O1 (centres unmarked) [Compound 6]
Rats, PMEApp levels in liver organ @ 8 hr., 30 mg/kg, p.o. [2]: 7.1 nmol/g

SMILES: CS(=O)(=O)O.Nc1ncnc2c1ncn2CCOCP1(=O)OCC[C@@H](c2cccc(Cl)c2)O1 (stereo in doubt) [Compound 56, 9-{2-[2,4-cis-(S)-(+)-4-(3′-Chlorophenyl)-2-oxo-1,3,2-dioxaphosphorinan-2-yl]metboxyethyl}adenine Methanesulfonate]
Decomposition of dosing solutions ([16]; 30 and 300 mg/ml in water, 5 days, room temperature): < 10%
Solubility in water ([16]; water): > 300 mg/mL
Activation Rate [1]: 0.45 ± 0.01 nmol/mg/min
OBAV (ratio of AUC of liver organ PMEApp oral vs i.v.) [17]: 42%
